From US12491170B2, “Stable treprostinil prodrugs” (United Therapeutics Corporation, priority 2020, dated 2025)

How the values were obtained:
[1] = Plasma stability, human plasma; assay type: in vitro ADME; conditions: for Formation of Treprostinil, Concentration 0 min / Formation of Treprostinil, Concentration 15 min / Formation of Treprostinil, Concentration 30 min / Formation of Treprostinil, Concentration 60 min / Formation of Treprostinil, Concentration 120 min: prodrug dosed 1 μM
Method: (§1) Studies were carried out in mixed-gender human plasma male Sprague-Dawley rat plasma, and male Beagle dog plasma. All plasma was obtained from Bioreclamation and collected on K2EDTA. Plasma was adjusted to pH 7.4 prior to initiating the experiments. DMSO stocks were first prepared for the test articles. […] The vials were kept in a benchtop Thermomixer® for the duration of the experiment. […] Samples were stored at 4° C. until the end of the experiment. After the final time point was sampled, the plate was mixed and then centrifuged at 3000 rpm for 10 minutes.

[2] = Stability in simulated intestinal fluid; assay type: in vitro ADME; conditions: for Half-life / Percent Remaining 0 min / Percent Remaining 15 min / Percent Remaining 60 min / Percent Remaining 120 min / Percent Remaining 30 min: SIF pH 6.8 with pancreatin, 1 μM, 37° C.; for Formation of Treprostinil, Concentration 0 min / Formation of Treprostinil, Concentration 15 min / Formation of Treprostinil, Concentration 30 min / Formation of Treprostinil, Concentration 60 min / Formation of Treprostinil, Concentration 120 min: SIF, prodrug dosed 1 μM
Method: Studies were carried out in simulated intestinal fluid (SIF). SIF was prepared by dissolving 6.8 g of KH2PO4 in 250 mL of water, mixing, and then adding 77 mL of 0.2 N NaOH and […] of water. […] DMSO stocks were first prepared for the test articles. […] The vials were kept in a benchtop Thermomixer® for the duration of the experiment. A separate tube was dosed for each time point in each matrix. […] Samples were mixed and then immediately stored at 4° C. until the end of the experiment. After the final time point was sampled, the plate was mixed and then centrifuged at 3000 rpm for 10 minutes.

[3] = rat
[4] = Plasma stability, dog plasma; assay type: in vitro ADME, Beagle dog; conditions: for Formation of Treprostinil, Concentration 0 min / Formation of Treprostinil, Concentration 15 min / Formation of Treprostinil, Concentration 30 min / Formation of Treprostinil, Concentration 60 min / Formation of Treprostinil, Concentration 120 min: prodrug dosed 1 μM
Method: as §1

[5] = Plasma stability, rat plasma; assay type: in vitro ADME, Sprague-Dawley rat; conditions: for Formation of Treprostinil, Concentration 0 min / Formation of Treprostinil, Concentration 15 min / Formation of Treprostinil, Concentration 30 min / Formation of Treprostinil, Concentration 60 min / Formation of Treprostinil, Concentration 120 min: prodrug dosed 1 μM
Method: as §1

[6] = Hydrolysis of prodrugs to treprostinil at pH 6, 7, 8 and 40 C; assay type: physicochemical
Description: Tables 24, 25 and 26 present data for hydrolysis of selected treprostinil prodrugs at pH 6, 7 and 8, respectively, and 40 C.

treprostinil diacetate [Prodrug LXXII]
Half-life ([1]; 1 μM, 37° C.): >2 h | Percent Remaining 0 min ([1]; 1 μM, 37° C.): 100% | Percent Remaining 15 min ([1]; 1 μM, 37° C.): 106% | Percent Remaining 60 min ([1]; 1 μM, 37° C.): 102% | Percent Remaining 120 min ([1]; 1 μM, 37° C.): 86.5% | Formation of Treprostinil, Concentration 0 min [1]: 0 µM | Formation of Treprostinil, Concentration 15 min [1]: 0 µM | Formation of Treprostinil, Concentration 30 min ([1]; 30 min): 0 µM | Formation of Treprostinil, Concentration 60 min [1]: 0 µM | Formation of Treprostinil, Concentration 120 min [1]: 0 µM | Half-life [2]: >2 h | Percent Remaining 0 min [2]: 100% | Percent Remaining 15 min [2]: 111% | Percent Remaining 60 min [2]: 108% | Percent Remaining 120 min [2]: 109% | Formation of Treprostinil, Concentration 0 min [2]: 0 µM | Formation of Treprostinil, Concentration 15 min [2]: 0 µM | Formation of Treprostinil, Concentration 30 min [2]: 0 µM | Formation of Treprostinil, Concentration 60 min [2]: 0 µM | Formation of Treprostinil, Concentration 120 min [2]: 0.0126 µM | AUC [3]: 10.02 µmol·min/L | Half-life ([4]; 1 μM, 37° C.): >2 h | Percent Remaining 0 min ([4]; 1 μM, 37° C.): 100% | Percent Remaining 15 min ([4]; 1 μM, 37° C.): 96.7% | Percent Remaining 60 min ([4]; 1 μM, 37° C.): 107% | Percent Remaining 120 min ([4]; 1 μM, 37° C.): 82.9% | Formation of Treprostinil, Concentration 0 min [4]: 0 µM | Formation of Treprostinil, Concentration 15 min [4]: 0 µM | Formation of Treprostinil, Concentration 30 min ([4]; 30 min): 0 µM | Formation of Treprostinil, Concentration 60 min [4]: 0 µM | Formation of Treprostinil, Concentration 120 min [4]: 0 µM | Half-life ([5]; 1 μM, 37° C.): >2 h | Percent Remaining 0 min ([5]; 1 μM, 37° C.): 100% | Percent Remaining 15 min ([5]; 1 μM, 37° C.): 107% | Percent Remaining 60 min ([5]; 1 μM, 37° C.): 83.6% | Percent Remaining 120 min ([5]; 1 μM, 37° C.): 79.7% | Formation of Treprostinil, Concentration 0 min [5]: 0 µM | Formation of Treprostinil, Concentration 15 min [5]: 0 µM | Formation of Treprostinil, Concentration 30 min ([5]; 30 min): 0 µM | Formation of Treprostinil, Concentration 60 min [5]: 0.00595 µM | Formation of Treprostinil, Concentration 120 min [5]: 0.0151 µM | Hydrolysis to treprostinil, % Area, t = 1 week ([6]; pH 6, 40 C.): 0.00 % Area | Hydrolysis to treprostinil, % Area, t = 2 weeks ([6]; pH 6, 40 C.): 0.00 % Area | Hydrolysis to treprostinil, % Area, t = 3 weeks ([6]; pH 6, 40 C.): 0.00 % Area | Hydrolysis to treprostinil, % Area, t = 1 week ([6]; pH 7, 40 C.): 0.00 % Area | Hydrolysis to treprostinil, % Area, t = 2 weeks ([6]; pH 7, 40 C.): 0.00 % Area | Hydrolysis to treprostinil, % Area, t = 3 weeks ([6]; pH 7, 40 C.): 0.00 % Area | Hydrolysis to treprostinil, % Area, t = 1 week ([6]; pH 8, 40 C.): 0.00 % Area | Hydrolysis to treprostinil, % Area, t = 2 weeks ([6]; pH 8, 40 C.): 0.00 % Area | Hydrolysis to treprostinil, % Area, t = 3 weeks ([6]; pH 8, 40 C.): 0.00 % Area

CCCCCC(CCC1C(OC(=O)CC)CC2Cc3c(cccc3OCC(=O)O)CC21)OC(=O)CC (stereo not drawn) [Prodrug LXX, treprostinil dipropionate]
Half-life ([1]; 1 μM, 37° C.): >2 h | Percent Remaining 0 min ([1]; 1 μM, 37° C.): 100% | Percent Remaining 15 min ([1]; 1 μM, 37° C.): 92.4% | Percent Remaining 30 min ([1]; 1 μM, 37° C., 30 min): 102% | Percent Remaining 60 min ([1]; 1 μM, 37° C.): 93.3% | Percent Remaining 120 min ([1]; 1 μM, 37° C.): 103% | Formation of Treprostinil, Concentration 0 min [1]: 0 µM | Formation of Treprostinil, Concentration 15 min [1]: 0 µM | Formation of Treprostinil, Concentration 30 min ([1]; 30 min): 0 µM | Formation of Treprostinil, Concentration 60 min [1]: 0 µM | Formation of Treprostinil, Concentration 120 min [1]: 0 µM | Half-life [2]: >2 h | Percent Remaining 0 min [2]: 100% | Percent Remaining 15 min [2]: 97.2% | Percent Remaining 30 min [2]: 104% | Percent Remaining 60 min [2]: 93.6% | Percent Remaining 120 min [2]: 86.2% | Formation of Treprostinil, Concentration 0 min [2]: 0 µM | Formation of Treprostinil, Concentration 15 min [2]: 0 µM | Formation of Treprostinil, Concentration 30 min [2]: 0 µM | Formation of Treprostinil, Concentration 60 min [2]: 0.00415 µM | Formation of Treprostinil, Concentration 120 min [2]: 0.0720 µM | AUC [3]: 38.82 µmol·min/L | Half-life ([4]; 1 μM, 37° C.): >2 h | Percent Remaining 0 min ([4]; 1 μM, 37° C.): 100% | Percent Remaining 15 min ([4]; 1 μM, 37° C.): 103% | Percent Remaining 30 min ([4]; 1 μM, 37° C., 30 min): 116% | Percent Remaining 60 min ([4]; 1 μM, 37° C.): 97.4% | Percent Remaining 120 min ([4]; 1 μM, 37° C.): 91.4% | Formation of Treprostinil, Concentration 0 min [4]: 0 µM | Formation of Treprostinil, Concentration 15 min [4]: 0 µM | Formation of Treprostinil, Concentration 30 min ([4]; 30 min): 0 µM | Formation of Treprostinil, Concentration 60 min [4]: 0 µM | Formation of Treprostinil, Concentration 120 min [4]: 0 µM | Half-life ([5]; 1 μM, 37° C.): 1.7 h | Percent Remaining 0 min ([5]; 1 μM, 37° C.): 100% | Percent Remaining 15 min ([5]; 1 μM, 37° C.): 98.3% | Percent Remaining 30 min ([5]; 1 μM, 37° C., 30 min): 80.3% | Percent Remaining 60 min ([5]; 1 μM, 37° C.): 69.3% | Percent Remaining 120 min ([5]; 1 μM, 37° C.): 45.0% | Formation of Treprostinil, Concentration 0 min [5]: 0 µM | Formation of Treprostinil, Concentration 15 min [5]: 0.00392 µM | Formation of Treprostinil, Concentration 30 min ([5]; 30 min): 0.0101 µM | Formation of Treprostinil, Concentration 60 min [5]: 0.0331 µM | Formation of Treprostinil, Concentration 120 min [5]: 0.0768 µM | Hydrolysis to treprostinil, % Area, t = 1 week ([6]; pH 6, 40 C.): 0.00 % Area | Hydrolysis to treprostinil, % Area, t = 2 weeks ([6]; pH 6, 40 C.): 0.00 % Area | Hydrolysis to treprostinil, % Area, t = 3 weeks ([6]; pH 6, 40 C.): 0.00 % Area | Hydrolysis to treprostinil, % Area, t = 1 week ([6]; pH 7, 40 C.): 0.00 % Area | Hydrolysis to treprostinil, % Area, t = 2 weeks ([6]; pH 7, 40 C.): 0.00 % Area | Hydrolysis to treprostinil, % Area, t = 3 weeks ([6]; pH 7, 40 C.): 0.00 % Area | Hydrolysis to treprostinil, % Area, t = 1 week ([6]; pH 8, 40 C.): 0.00 % Area | Hydrolysis to treprostinil, % Area, t = 2 weeks ([6]; pH 8, 40 C.): 0.00 % Area | Hydrolysis to treprostinil, % Area, t = 3 weeks ([6]; pH 8, 40 C.): 0.00 % Area

CCCCCC(CCC1C(OC(=O)OC)CC2Cc3c(cccc3OCC(=O)O)CC21)OC(=O)OC (stereo not drawn) [Prodrug LXXI, treprostinil dicarbonate]
Half-life [2]: >2 h | Percent Remaining 0 min [2]: 100% | Percent Remaining 15 min [2]: 96.2% | Percent Remaining 30 min [2]: 100% | Percent Remaining 60 min [2]: 91.9% | Percent Remaining 120 min [2]: 83.5% | AUC [3]: 33.51 µmol·min/L | Hydrolysis to treprostinil, % Area, t = 1 week ([6]; pH 6, 40 C.): 0.00 % Area | Hydrolysis to treprostinil, % Area, t = 2 weeks ([6]; pH 6, 40 C.): 0.00 % Area | Hydrolysis to treprostinil, % Area, t = 3 weeks ([6]; pH 6, 40 C.): 0.00 % Area | Hydrolysis to treprostinil, % Area, t = 1 week ([6]; pH 7, 40 C.): 0.00 % Area | Hydrolysis to treprostinil, % Area, t = 2 weeks ([6]; pH 7, 40 C.): 0.00 % Area | Hydrolysis to treprostinil, % Area, t = 3 weeks ([6]; pH 7, 40 C.): 0.00 % Area | Hydrolysis to treprostinil, % Area, t = 1 week ([6]; pH 8, 40 C.): 0.00 % Area | Hydrolysis to treprostinil, % Area, t = 2 weeks ([6]; pH 8, 40 C.): 0.00 % Area | Hydrolysis to treprostinil, % Area, t = 3 weeks ([6]; pH 8, 40 C.): 0.38 % Area
